Results taken from patent publication US10281267B2, “Method for evaluating flow of skin, method for examining skin glow improvers, and skin glow improver” (Shiseido Company, Ltd., priority 2014, dated 2019).
“Also recorded” adds a separate entry of the source.

Legend:
horny layer cells [1] = experiment: Screening of specular reflectance improvers: arithmetic average roughness (Sa) of exfoliated horny layer cells by AFM; assay type: cell-based; conditions: for screening result: specular reflectance improver: 100 μl sample on horny layer cells, 30 minutes at 37° C., nine types of cosmetic ingredients screened
Text: The surface roughness of skin can be determined by measuring the surface of horny layer cells sampled with a strip of adhesive tape and the like using a microscope such as an atomic force microscope. Surface roughness can be calculated in terms of arithmetic average roughness (Sa) as defined in ISO25178 by acquiring 3D-scanned images captured using an atomic force microscope, correcting the inclination of the 3D shape by subtracting those images applicable to a Gaussian filter having a half width of 2 μm, displaying the images, and calculating the average of absolute values of the Z axis for each XY coordinate.
First, the arithmetic average roughness (Sa) of horny layer cells is measured (S11). Next, a sample is applied to the horny layer cells (S12). Then, the arithmetic average roughness (Sa) of the horny layer cells to which the sample has been applied is measured (S13). Next, the rate of decrease of the arithmetic average roughness (Sa) of the horny layer cells to which the sample was applied is determined relative to the arithmetic average roughness of the horny layer cells to which the sample was not applied (S14).
On the other hand, horny layer cells were exfoliated from the cheeks of the subjects using adhesive strips (Post-It®, 3M Corp.). Next, double-sided adhesive tape was adhered to a slide glass and the exfoliated horny layer cells were transferred to the slide glass. Moreover, the arithmetic average roughness (Sa) of five horny layer cells was measured using an AFM attached to the Optelics H1200A 3CCD real color confocal microscope (Lasertec Corp.) followed by determination of the average value thereof.
Horny layer cells were exfoliated from the cheeks of subjects using adhesive strips (Post-It®, 3M Corp.). Next, double-sided adhesive tape was adhered to a slide glass and the exfoliated horny layer cells were transferred to the slide glass. Moreover, the arithmetic average roughness (Sa) of five horny layer cells was measured using an AFM attached to the Optelics H1200A 3CCD real color confocal microscope (Lasertec Corp.) followed by determination of the average value thereof. Next, 100 μl of a candidate sample were dropped onto the horny layer cells followed by incubating for 30 minutes at 37° C. Moreover, arithmetic average roughness (Sa) of the aforementioned five horny layer cells was then measured in the same manner followed by determination of the average value thereof.

horny layer cells [2] = experiment: as above; assay type: cell-based; conditions: trimethylglycine alone

## O=C(O)CO [glycolic acid]
Horny layer cells [1]
  screening result: specular reflectance improver: determined to be specular reflectance improvers
Horny layer cells [1]; concentration 4% by weight to 40% by weight, FIG. 20
  arithmetic average roughness (Sa) of horny layer cells: decreases significantly

## COc1ccc(C(=O)[O-])c(O)c1.[K+] [potassium 4-methoxysalicylate]
Horny layer cells [1]; 4-MSK at 0, 0.1, 1.0, 3.0 and 10.0% by weight, FIG. 8
  rate of decrease of arithmetic average roughness (Sa) of horny layer cells: dose-dependent increase in the rate of decrease of arithmetic average roughness (Sa) up to 3.0% by weight
Horny layer cells [1]
  screening result: specular reflectance improver: determined to be specular reflectance improvers
Horny layer cells [1]; concentration 3% by weight to 10% by weight, FIG. 13
  arithmetic average roughness (Sa) of horny layer cells: decreases significantly

## O=C([O-])c1ccccc1O.[Na+] [sodium salicylate, sodium 2-hydroxybenzoate]
Horny layer cells [1]
  screening result: specular reflectance improver: determined to be specular reflectance improvers

## C[N+](C)(C)CC(=O)[O-] [trimethylglycine]
Horny layer cells [1]; TMG alone at 0, 5 and 10% by weight, FIG. 9
  rate of decrease of arithmetic average roughness (Sa) of horny layer cells: does not have the effect of smoothing the horny layer or improving skin glow; also recorded: no differences in the rates of decrease of arithmetic average roughness (Sa); also recorded: did not have an effect on the rate of decrease of Sa
Horny layer cells [2]
  specular reflectance of the skin: confirmed to not be improved
